From publication PMC6429262, “Design and Synthesis of Novel Anti-Proliferative Emodin Derivatives and Studies on their Cell Cycle Arrest, Apoptosis Pathway and Migration” (Molecules, 2019)

How the values were obtained:
[1] = tested on: HepG2 cells; test: CellTiter-Glo Luminescent Cell Viability Assay, HepG2; type: cell-based, human; settings: Homo sapiens, HepG2, 48 h, HepG2 cells, 48 h, mean of three independent experiments
Description: (§1) The in vitro anti-proliferative activities of all the novel synthesized compounds were evaluated against HepG2 cells and MCF-7 cells by CellTiter-Glo® Luminescent Cell Viability Assay, using paclitaxel (a clinically used drug) as a positive control. Emodin (1) and compound 2 were also included for comparison.
(§2) HepG2 cells and MCF-7 cells were purchased from American Type Culture Collection (ATCC, Manassas, VA, USA). Cells were cultured in T75 flask (430641, Corning, New York, NY, USA), supplemented with high-glucose DMEM medium (Dulbecco’s modified Eagle’s medium, 11965-092, Gibco, New York, NY, USA) containing 10% Fetal bovine serum (FBS) and 1% penicillin (100 units/mL)-streptomycin (100 µg/mL) in a humidified incubator at 37 °C under 5% CO2 and 95% relative humidity (RH) atmosphere. The cells were harvested for metabolomics experiments using cell scrapers.
(§3) HepG2 cells and MCF-7 cells in 40 µL DMEM supplemented with 10% FBS were seeded at a density of 500 cells/well in 384-well cell culture plate (3570, Corning), respectively. After 24 h, the medium was substituted with fresh medium containing various sample solutions in DMSO (0.5%, v/v) at a dose range of 0.14–100 µM with 3-fold serial dilutions, and cells were cultured for another 48 h. Cells were cultured in medium without samples but 0.5% DMSO served as a control. All measurements were determined in triplicate for each treatment. After the sample treatment for 48 h, 20 µL CellTiter-Glo (G7573, Promega, Fitchburg, WI, USA) was added to each well containing cells and the contents were mixed for 2 min on an orbital shaker to induce cell lysis. The plates were then incubated at room temperature for 20 min to stabilize the luminescent signal. The luminescence was recorded on an Envision 2014 (Perkin Elmer, Waltham, MA, UAS). The IC50 values represented the samples’ concentrations required to inhibit 50% of cell proliferation and were calculated from a calibration curve by linear regression using GraphPad Prism 7.0 software (GraphPad Software, San Diego, CA, USA).

[2] = tested on: MCF-7 cells; test: CellTiter-Glo Luminescent Cell Viability Assay, MCF-7; type: cell-based, human; settings: for IC50: Homo sapiens, MCF7, 48 h, MCF-7 cells, 48 h, mean of three independent experiments
Description: as §1, §2, §3

Row | IC50 [1] | IC50 [2] | Structure (SMILES) | activity reduction compared to emodin (1) ([2]; MCF-7 cell lines)
1 | 11.4 ± 0.47 µM | 12.5 ± 0.44 µM | Cc1cc(O)c2c(c1)C(=O)c1cc(OCCOCCOC(=O)[C@H](C)N)cc(O)c1C2=O [Compound 7h, (S)-1-(2-(2-(4,5-Dihydroxy-7-methyl-9,10-dioxo-9,10-dihydroanthracen-2-yloxy)ethoxy)ethoxy)-1-oxo-propan-2-aminium 2,2,2-trifluoroacetate] | –
2 | 15.9 ± 0.33 µM | 16.1 ± 0.23 µM | Cc1cc(O)c2c(c1)C(=O)c1cc(OCCOC(=O)[C@@H](N)CC(C)C)cc(O)c1C2=O [Compound 3g, (S)-1-(2-(4,5-Dihydroxy-7-methyl-9,10-dioxo-9,10-dihydroanthracen-2-yloxy)ethoxy)-4-methyl-1-oxopentan-2-aminium 2,2,2-trifluoroacetate] | –
3 | 37.2 ± 2.44 µM | 37.8 ± 2.44 µM | Cc1cc(O)c2c(c1)C(=O)c1cc(OCCOCCOCCOCCOC(=O)[C@@H](C)N)cc(O)c1C2=O [Compound 7k, (R)-1-(4,5-Dihydroxy-7-methyl-9,10-dioxo-9,10-dihydroanthracen-2-yloxy)-13-oxo-3,6,9,12-tetraoxapenta-decan-14-aminium 2,2,2-trifluoroacetate] | –
4 | 31.9 ± 2.77 µM | 25.6 ± 0.58 µM | Cc1cc(O)c2c(c1)C(=O)c1cc(OCCOCCOCCOC(=O)[C@H](C)N)cc(O)c1C2=O [Compound 7j, (S)-1-(2-(2-(2-(4,5-Dihydroxy-7-methyl-9,10-dioxo-9,10-dihydroanthracen-2-yloxy)ethoxy)ethoxy)ethoxy)-1-oxopropan-2-aminium 2,2,2-trifluoroacetate] | –
5 | 28.7 ± 0.87 µM | 20.8 ± 1.87 µM | Cc1cc(O)c2c(c1)C(=O)c1cc(OCCOCCOCCOC(=O)[C@@H](C)N)cc(O)c1C2=O [Compound 7i, (R)-1-(2-(2-(2-(4,5-Dihydroxy-7-methyl-9,10-dioxo-9,10-dihydroanthracen-2-yloxy)ethoxy)ethoxy)ethoxy)-1-oxopropan-2-aminium 2,2,2-trifluoroacetate] | –
6 | 17.2 ± 0.2 µM | 17.2 ± 0.41 µM | CSCC[C@H](N)C(=O)OCCOc1cc(O)c2c(c1)C(=O)c1cc(C)cc(O)c1C2=O [Compound 3i, (S)-1-(2-(4,5-Dihydroxy-7-methyl-9,10-dioxo-9,10-dihydroanthracen-2-yloxy)ethoxy)-4-(methylthio)-1-oxobutan-2-aminium 2,2,2-trifluoroacetate] | –

Continued, compound first:

Row | Structure (SMILES) | IC50 [1] | IC50 [2] | activity reduction compared to emodin (1) ([2]; MCF-7 cell lines)
7 | Cc1cc(O)c2c(c1)C(=O)c1cc(OCCOC(=O)[C@@H](N)Cc3ccccc3)cc(O)c1C2=O [Compound 3x, (S)-1-(2-(4,5-Dihydroxy-7-methyl-9,10-dioxo-9,10-dihydroanthracen-2-yloxy)ethoxy)-1-oxo-3-phenyl-propan-2-aminium 2,2,2-trifluoroacetate] | 16.2 ± 0.36 µM | 18.1 ± 0.32 µM | –
8 | Cc1cc(O)c2c(c1)C(=O)c1cc(OCCOC(=O)[C@H](N)c3ccccc3)cc(O)c1C2=O [Compound 3q, (R)-2-(2-(4,5-Dihydroxy-7-methyl-9,10-dioxo-9,10-dihydroanthracen-2-yloxy)ethoxy)-2-oxo-1-phenyl-ethanaminium 2,2,2-trifluoroacetate] | 25.9 ± 0.48 µM | 28.5 ± 1.74 µM | –
9 | Cc1cc(O)c2c(c1)C(=O)c1cc(OCCOC(=O)[C@H](N)c3ccc(F)cc3)cc(O)c1C2=O [Compound 3u, (R)-2-(2-(4,5-Dihydroxy-7-methyl-9,10-dioxo-9,10-dihydroanthracen-2-yloxy)ethoxy)-1-(4-fluorophenyl)-2-oxoethanaminium 2,2,2-trifluoroacetate] | 14.3 ± 1.04 µM | 20.8 ± 0.32 µM | –
10 | CN[C@@H](C)C(=O)OCCOc1cc(O)c2c(c1)C(=O)c1cc(C)cc(O)c1C2=O.O=C(O)C(F)(F)F [Compound 4b, (S)-1-(2-(4,5-Dihydroxy-7-methyl-9,10-dioxo-9,10-dihydroanthracen-2-yloxy)ethoxy)-N-methyl-1-oxo-propan-2-aminium 2,2,2-trifluoroacetate] | 40 ± 2.85 µM | 68.8 ± 2.25 µM | 6 fold
11 | Cc1cc(O)c2c(c1)C(=O)c1cc(OCCOC(=O)C3(N)COC3)cc(O)c1C2=O [Compound 3m, 3-((2-(4,5-Dihydroxy-7-methyl-9,10-dioxo-9,10-dihydroanthracen-2-yloxy)ethoxy)carbonyl)oxetan-3-aminium 2,2,2-trifluoroacetate] | > 100 µM | > 100 µM | –
12 | Cc1cc(O)c2c(c1)C(=O)c1cc(OCCOC(=O)[C@@H]3CCCN3)cc(O)c1C2=O [Compound 3p, (S)-2-((2-(4,5-Dihydroxy-7-methyl-9,10-dioxo-9,10-dihydroanthracen-2-yloxy)ethoxy)carbonyl)-pyrrolidinium 2,2,2-trifluoroacetate] | 19 ± 0.6 µM | 20 ± 1.82 µM | –
13 | Cc1cc(O)c2c(c1)C(=O)c1cc(OCCCCOC(=O)[C@@H](C)N)cc(O)c1C2=O [Compound 7c, (R)-1-(4-(4,5-Dihydroxy-7-methyl-9,10-dioxo-9,10-dihydroanthracen-2-yloxy)butoxy)-1-oxopropan-2-aminium 2,2,2-trifluoroacetate] | 11.4 ± 1.69 µM | 12.7 ± 0.55 µM | –
14 | Cc1cc(O)c2c(c1)C(=O)c1cc(OCCOC(=O)[C@H](N)c3ccc(O)cc3)cc(O)c1C2=O [Compound 3s, (R)-2-(2-(4,5-Dihydroxy-7-methyl-9,10-dioxo-9,10-dihydroanthracen-2-yloxy)ethoxy)-1-(4-hydroxyphenyl)-2-oxoethanaminium 2,2,2-trifluoroacetate] | 18.5 ± 0.55 µM | 25.9 ± 1.09 µM | –
15 | CC(=O)O[C@H]1C(=O)[C@@]2(C)[C@H]([C@H](OC(=O)c3ccccc3)[C@]3(O)C[C@H](OC(=O)[C@H](O)[C@@H](NC(=O)c4ccccc4)c4ccccc4)C(C)=C1C3(C)C)[C@]1(OC(C)=O)CO[C@@H]1C[C@@H]2O [Paclitaxel, reference compound] | 10.3 ± 0.26 µM | 4.89 ± 0.11 µM | –
16 | Cc1cc(O)c2c(c1)C(=O)c1cc(OCCOC(=O)[C@H](N)Cc3ccc(O)cc3)cc(O)c1C2=O [Compound 3y, (R)-1-(2-(4,5-Dihydroxy-7-methyl-9,10-dioxo-9,10-dihydroanthracen-2-yloxy)ethoxy)-3-(4-hydroxyphenyl)-1-oxopropan-2-aminium 2,2,2-trifluoroacetate] | 20.3 ± 1.4 µM | 38.3 ± 1.92 µM | –
17 | Cc1cc(O)c2c(c1)C(=O)c1cc(OCCOC(=O)C(C)(C)N)cc(O)c1C2=O [Compound 3j, 1-(2-(4,5-Dihydroxy-7-methyl-9,10-dioxo-9,10-dihydroanthracen-2-yloxy)ethoxy)-2-methyl-1-oxopropan-2-aminium 2,2,2-trifluoroacetate] | 25.8 ± 5.28 µM | 29.8 ± 1.78 µM | –
18 | Cc1cc(O)c2c(c1)C(=O)c1cc(OCCOC(=O)C3(N)CC3)cc(O)c1C2=O [Compound 3k, 1-((2-(4,5-Dihydroxy-7-methyl-9,10-dioxo-9,10-dihydroanthracen-2-yloxy)ethoxy)carbonyl)cyclopropan-aminium 2,2,2-trifluoroacetate] | 53.2 ± 8.7 µM | > 100 µM | –
19 | Cc1cc(O)c2c(c1)C(=O)c1cc(OCCO)cc(O)c1C2=O [Compound 2, 1,8-Dihydroxy-3-(2-hydroxyethoxy)-6-methylanthracene-9,10-dione] | 64.1 ± 2.37 µM | 86.4 ± 3.98 µM | –
20 | Cc1cc(O)c2c(c1)C(=O)c1cc(OCCOC(=O)[C@@H](N)c3ccc(F)cc3)cc(O)c1C2=O [Compound 3v, (S)-2-(2-(4,5-Dihydroxy-7-methyl-9,10-dioxo-9,10-dihydroanthracen-2-yloxy)ethoxy)-1-(4-fluorophenyl)-2-oxoethanaminium 2,2,2-trifluoroacetate] | 11.4 ± 0.77 µM | 22.6 ± 0.9 µM | –
